Consider 34 molecules from the Deep4Chem optical property database.

One data set in a line: solvent given as SMILES. Conditions: in CN(C)C=O.
The molecule `CCN(CC)c1ccc2cc3ccc(=[N+](CC)CC)cc-3oc2c1` had an emission maximum of 532 nm.

As to `CC(C)(C)c1ccc(-c2nc3c4ccccc4c4ccccc4c3n2-c2ccc(C(C)(C)C)cc2)cc1`, the emission maximum amounted to 391 nm.

As to `O=C(O)c1ccc2ccc3cccc4ccc1c2c34`, the emission maximum worked out at 388 nm.

In the case of `C[n+]1ccc(/C=C/c2ccc([O-])cc2)cc1`, the emission maximum was 608 nm.

Staying with this data set, now noted: in CN(C)P(=O)(N(C)C)N(C)C.
Consider `COc1cc(/C=C/c2cc[n+](Cc3ccc(Br)cc3)cc2)ccc1O`, for which the emission maximum is reported as 567 nm.

Staying with this data set, now noted: in CO.
In turn, `O=C1C=Cc2cc3ccccc3c(=O)n21` yielded an emission maximum of 450 nm.

Molecule `CCCN1/C(=C/C=C(/C=C/c2sc3ccccc3[n+]2CCC)c2ccc([N+](=O)[O-])cc2)Sc2ccccc21` showed an emission maximum of 663 nm.

In the case of `CCCCCCN(CCCCCC)c1ccc(C#Cc2ccc(C#N)cc2)cc1`, the emission maximum stood at 514 nm.

In turn, `O=C(O)CCCOc1cc2ccc3cccc4ccc(c1)c2c34` came in with an emission maximum of 382 nm.

Regarding `COc1cc(/C=C/c2cc[n+](Cc3ccc(Br)cc3)cc2)ccc1O`, the emission maximum is recorded as 566 nm.

The molecule `N#Cc1ccc(-c2nc(-c3ccccc3)c(-c3ccccc3)[nH]2)cc1` had an emission maximum of 435 nm.

Turning to `O=C(O)c1ccc2ccc3cccc4ccc1c2c34`, the emission maximum is 380 nm.

The molecule `C[n+]1ccc(/C=C/c2ccc([O-])cc2)cc1` gave an emission maximum of 576 nm.

The same data set, now with this note: in CS(C)=O.
`CCNc1cc2oc(=O)c3c(=O)oc4ccccc4c3c2cc1C` showed an emission maximum of 552 nm.

For the molecule `O=C1C=Cc2cc3ccccc3c(=O)n21`, the emission maximum came to 420 nm.

In turn, `O=C1CCCC2=C1C(c1cccc(Cl)c1)c1c(c3ccccc3oc1=O)N2` (stereo not drawn) gave an emission maximum of 443 nm.

`CCCN1/C(=C/C=C(/C=C/c2sc3ccccc3[n+]2CCC)c2ccc([N+](=O)[O-])cc2)Sc2ccccc21` registered an emission maximum of 673 nm.

Consider `COc1cc(/C=C/c2cc[n+](Cc3ccc(Br)cc3)cc2)ccc1O`, for which the emission maximum is given as 568 nm.

On to `C(=C\c1nc(/C=C/c2ccc(N(c3ccccc3)c3ccccc3)cc2)cc(/C=C/c2ccc(N(c3ccccc3)c3ccccc3)cc2)n1)/c1ccccc1`, for which the emission maximum came out at 596 nm.

`c1ccc2c(-c3ccc(-c4nnc(-c5ccc(-c6nnc(-c7ccc(-c8cccc9ccccc89)s7)o6)cc5)o4)s3)cccc2c1` came in with an emission maximum of 468 nm.

For `C[n+]1ccc(/C=C/c2ccc([O-])cc2)cc1`, the emission maximum is 608 nm.

The same data set, now with this note: in Cc1ccccc1.
Regarding `Fc1c(F)c(-n2c3ccccc3c3ccccc32)c(F)c(-n2c3ccccc3c3ccccc32)c1-c1nnc(-c2ccccc2)o1`, the emission maximum was 449 nm.

For `F[B-]1(F)Oc2ccccc2-c2nc(-c3ccccc3)c3ccccc3[n+]21`, the emission maximum worked out at 529 nm.

The molecule `O=P(c1ccccc1)(c1ccccc1)n1c2ccccc2c2cc(-n3c4ccccc4c4cc(-n5c6ccccc6c6ccccc65)ccc43)ccc21` came in with an emission maximum of 373 nm.

In turn, `N#Cc1cc(-n2c3ccccc3c3cccnc32)c(-n2c3ccccc3c3cccnc32)cc1C#N` returned an emission maximum of 417.44 nm.

Molecule `N#Cc1cc(N2c3ccccc3Oc3ccccc32)cc(N2c3ccccc3Oc3ccccc32)c1` had an emission maximum of 520 nm.

In turn, `CCCC1=Cc2nc1ccc1[nH]c(cc1CCC)c1nc(c(OCc3ccc(C(=O)O)cc3)cc3[nH]c2cc3CCC)C(CCC)=C1` showed an emission maximum of 685 nm.

For `COCCC1=Cc2nc1ccc1[nH]c(cc1CCOC)c1nc(c(O)cc3[nH]c2cc3CCOC)C(CCOC)=C1`, the emission maximum is on record as 688 nm.

`CC(C)(C)c1ccc(-c2nc3c4ccccc4c4ccccc4c3n2-c2ccc(C(C)(C)C)cc2)cc1` gave an emission maximum of 390 nm.

In turn, `C(=C\c1nc(/C=C/c2ccc(N(c3ccccc3)c3ccccc3)cc2)cc(/C=C/c2ccc(N(c3ccccc3)c3ccccc3)cc2)n1)/c1ccccc1` had an emission maximum of 482 nm.

`c1ccc2c(-c3ccc(-c4nnc(-c5ccc(-c6nnc(-c7ccc(-c8cccc9ccccc89)s7)o6)cc5)o4)s3)cccc2c1` registered an emission maximum of 434 nm.

In turn, `O=C(O)c1ccc2ccc3cccc4ccc1c2c34` displayed an emission maximum of 392 nm.

As to `O=C1c2cccc3cc4ccccc4c(c23)C(=O)N1Cc1ccccn1`, the emission maximum was determined as 483 nm.

The data set is the same for the next values; noted with them: in ClC(Cl)Cl.
`O=C1C=Cc2cc3ccccc3c(=O)n21` displayed an emission maximum of 410 nm.

In turn, `CCCCCCCCCCCCOc1ccc(C2=C3C(=O)N(CC(OCC)OCC)C(c4ccc(OCCCCCCCCCCCC)c(OCCCCCCCCCCCC)c4)=C3C(=O)N2CC(OCC)OCC)cc1OCCCCCCCCCCCC` registered an emission maximum of 541 nm.

Take `COc1cc2c(cc1OC)C1=C3C(=O)N4C=Cc5cc(OC)c(OC)cc5C4=C3C(=O)N1C=C2`: the emission maximum is 597 nm.

As for `c1ccc2c(c1)-c1c(ccc3ccccc13)C21c2cc(-c3ccc4ccc5cccc6ccc3c4c56)ccc2-c2ccc(-c3ccc4ccc5cccc6ccc3c4c56)cc21`, the emission maximum was 422 nm.

In the case of `CCCC1(CCC)c2cc(C=C(C#Cc3ccccc3)C#Cc3ccccc3)ccc2-c2ccc(C=C(C#Cc3ccccc3)C#Cc3ccccc3)cc21`, the emission maximum is listed as 473 nm.

On to `c1ccc2c(-c3ccc(-c4nnc(-c5ccc(-c6nnc(-c7ccc(-c8cccc9ccccc89)s7)o6)cc5)o4)s3)cccc2c1`, for which the emission maximum is 410 nm.

The same data set, now with this note: in ClC=C(Cl)Cl.
`CC(C)(C)c1ccc(-c2nc3c4ccccc4c4ccccc4c3n2-c2ccc(C(C)(C)C)cc2)cc1` gave an emission maximum of 392 nm.

Staying with this data set, now noted: in ClCCl.
In turn, `CCNc1cc2oc(=O)c3c(=O)oc4ccccc4c3c2cc1C` returned an emission maximum of 509 nm.

`CN(C)c1ccc(/C=C/c2ccncn2)cc1` yielded an emission maximum of 488 nm.

Take `CC(C)(C)c1ccc(-c2ccc(-c3ccc(C(C)(C)C)cc3)c3nsnc23)cc1`: the emission maximum is given as 512 nm.

Molecule `CCCCCCN(CCCCCC)c1ccc(C#Cc2ccc(C#N)cc2)cc1` returned an emission maximum of 484 nm.

As to `CCCCC(CC)COc1cc(OCC(CC)CCCC)c2c#cc3ccc4c(c3)c3cc(c#cc5cc(c#cc6ccc7c(c6)c6cc(c#cc1c2)ccc6n7CC(CC)CCCC)c(C(CCCC)OCCC)cc5C(CCCC)OCCC)ccc3n4CC(CC)CCCC` (stereo not drawn), the emission maximum worked out at 388 nm.

Consider `O=P(c1ccccc1)(c1ccccc1)n1c2ccccc2c2cc(-n3c4ccccc4c4cc(-n5c6ccccc6c6ccccc65)ccc43)ccc21`, for which the emission maximum came out at 381 nm.

`N#Cc1cc(-n2c3ccccc3c3cccnc32)c(-n2c3ccccc3c3cccnc32)cc1C#N`: the emission maximum was 468.37 nm.

On to `ClP1(Cl)=N[P@](Cl)(Oc2ccc3ccc4cccc5ccc2c3c45)=N[P@@](Cl)(Oc2ccc3ccc4cccc5ccc2c3c45)=N1`, for which the emission maximum is 419 nm.

The molecule `Clc1ccc(N2c3sc4ccccc4c3Sc3sc4ccccc4c32)cc1` registered an emission maximum of 563 nm.

With `CCc1ccc(C2=[N+]3C(=Cc4c5ccc(OC)cc5c(-c5ccc(CC)s5)n4[B-]3(F)F)c3ccc(OC)cc32)s1`, the emission maximum turned out to be 780 nm.

`CC(C)(C)c1ccc(-c2nc3c4ccccc4c4ccccc4c3n2-c2ccc(C(C)(C)C)cc2)cc1` had an emission maximum of 392 nm.

Molecule `C[Si]1(C)c2cc(-c3cccs3)ccc2C=Cc2ccc(-c3cccs3)cc21` yielded an emission maximum of 415 nm.

Regarding `C(=C\c1nc(/C=C/c2ccc(N(c3ccccc3)c3ccccc3)cc2)cc(/C=C/c2ccc(N(c3ccccc3)c3ccccc3)cc2)n1)/c1ccccc1`, the emission maximum was 551 nm.

In the case of `O=C(O)c1ccc2ccc3cccc4ccc1c2c34`, the emission maximum is 394 nm.

Molecule `O=C1c2cccc3cc4ccccc4c(c23)C(=O)N1Cc1ccccn1` had an emission maximum of 490 nm.

In turn, `C[n+]1ccc(/C=C/c2ccc([O-])cc2)cc1` yielded an emission maximum of 615 nm.

Still in this data set, the particulars now being: in NC=O.
`C[n+]1ccc(/C=C/c2ccc([O-])cc2)cc1` came in with an emission maximum of 577 nm.

Staying with this data set, now noted: in O.
For the molecule `CCCN1/C(=C/C=C(/C=C/c2sc3ccccc3[n+]2CCC)c2ccc([N+](=O)[O-])cc2)Sc2ccccc21`, the emission maximum is 669 nm.

On to `CC[n+]1c(-c2ccccc2)c2cc(NC(N)=[NH2+])ccc2c2ccc(NC(N)=[NH2+])cc21`, for which the emission maximum is listed as 500 nm.

In turn, `CCN(CC)c1ccc2cc3ccc(=[N+](CC)CC)cc-3oc2c1` came in with an emission maximum of 555 nm.

On to `C[n+]1ccc(/C=C/c2ccc([O-])cc2)cc1`, for which the emission maximum amounted to 560 nm.

Still in this data set, the particulars now being: in OCCO.
The molecule `C[n+]1ccc(/C=C/c2ccc([O-])cc2)cc1` came in with an emission maximum of 573 nm.

The data set is the same for the next values; noted with them: in c1cc(-n2c3ccccc3c3ccccc32)cc(-n2c3ccccc3c3ccccc32)c1.
In turn, `N#Cc1cc(-n2c3ccccc3c3cccnc32)c(-n2c3ccccc3c3cccnc32)cc1C#N` showed an emission maximum of 441.06 nm.
